Measurements published in patent US5360796A, “Imidazo[1,2-a]pyridinylalkyl phosphonic acid compounds for treatment of neurotoxic injury” (G. D. Searle & Co., priority 1991, dated 1994).

How the values were obtained:
[1] = test system: CA1 region of the hippocampus; assay: Forebrain Ischemia Assay; type: in vivo, Mongolian gerbil; details: for # of Neurons/Field: 7 days after 4-5 min carotid occlusion
Description: This assay was used to determine the extent of protection afforded by compound of the invention to neural brain cells subjected to ischemic conditions. Male Mongolian gerbils, 50-70 gm, were used as subjects. Compound No. 7 (30 mg/kg) was injected j.p. 30 minutes prior to carotid occlusion into 6 gerbils […]. In preparation for surgical procedures, the animals were lightly anesthetized with methoxyflurane and placed upside down on a heated pad with their snout within a nosecone. A 70:30 mixture of nitrous oxide and oxygen containing 0.5% halothane was circulated through the nosecone to provide continuous anesthesia throughout the surgical procedure. A midline incision was made in the neck and the carotid arteries were exposed. A length of suture thread was placed under each carotid. The thread was then tightened around each carotid and pressure applied to the thread to insure flow was occluded. Flow was occluded for 4-5 minutes and then the thread was removed. The carotids were visually inspected to confirm that reflow had occurred. The wound was then closed with autoclips and the gerbils allowed to recover. Following surgery, the gerbils were kept alive for 7 days. They were anesthetized with 100 mg/kg sodium pentobarbital and perfused transcardially with saline (with heparin) followed by buffered formalin. The brain was removed, trimmed and prepared for histological processing. Sections (10 microns) were stained with thionin. […] Quantification of the resulting lesion is made by counting the pyramidal cell somata in a 0.5 mm length of CAl of the hippocampus on the section corresponding to P 1.7 mm in the gerbil brain atlas.
Normal cell count in this region of the hippocampus in unoperated gerbils is 146±2. The effects of compound of Ex. #7 were assessed by comparing the number of neural cells found in the hippocampus of subjects treated with Ex. #7 compound with the cell number found in the appropriate control groups. […]

AMPA = assay: [3H]AMPA (QUIS) binding assay; parameters: species or system rat; details: 10 nM [3H]AMPA, 100 mM KSCN, synaptic plasma membranes, pH 7.4, 0-4° C., 10 min; read-out: NMDA Receptor Binding Data, Ki IC50 Binding AMPA
Description: Synaptic plasma membranes (SPM) were prepared as previously described [Monahah, J. B. and Michel, J., "Identification and Characterization of an N-methyl-D-aspartate-specific L[^3 H]glutamate Recognition Site in Synaptic Plasma Membranes, J. Neurochem., 48, 1699-1708 (1987)]. The SPM were stored at a concentration of 10-15 mg/ml in 0.32M sucrose, 0.5 mM EDTA, 1 mM MgSO4, 5 mM Tris/SO4, pH 7.4, under liquid nitrogen. The identity and purity of the subcellular fractions were confirmed by both electron microscopy and marker enzymes. Protein concentrations were determined by using a modification of the method of Lowry [Ohnishi, S. T. and Barr, J. K., "A Simplified Method of Quantitating Proteins using the Biuret and Phenol Reagents", Anal. Biochem., 86, 193-197 (1978)]. The SPM were treated identically for the [^3 H]AMPA (QUIS), [^3 H]kainate and sodium-dependent L-[^3 H]-glumatate binding assays. The SPM were thawed at room temperature, diluted twenty-fold with 50mM Tris/acetate, pH 7.4, incubated at 37° C. for 30 minutes, and centrifuged at 100,000 g for 15 minutes. The dilution, incubation, and centrifugation was repeated a total of three times. Prior to use in the NMDA-specific L-[^3 H]-glutamate binding assay the SPM were thawed, diluted twenty fold with 50 mM Tris/acetate, pH 7.4 containing 0.04% (v/v) Triton X-100, incubated for 30 minutes at 37° C. and centrifuged as described above. The Triton X-100 treated membranes were washed with 50 mM Tris/acetate, pH 7.4 and centrifuged at 100,000 g for 15 minutes a total of four times. […] The basic procedure for the receptor subclass binding assays was similar. This general method involved adding the radioligand (12.5 nM L-[^3 H] glutamate; 0.5 nM [^3 H]kainate or 10 nM [^3 H]AMPA) to the appropriate concentration of the test compound and initiating the assay by the addition of ice cold synaptic plasma membranes (0.2-0.45 mg). The binding assays were performed in 1.5 mL centrifuge tubes with the total volume adjusted to 1.0 mL. Additions of test compounds were made in 50 mM Tris/acetate, pH 7.4 and incubations were carried out at 0°-4° C. The incubation time for the NMDA and the AMPA binding assays was 10 minutes, for the kainate binding assay 60 minutes and for the sodium-dependent glutamate binding assay 15 minutes. The AMPA binding assay contained 100 mM KSCN and the sodium-dependent glutamate binding assay contained 150 mM sodium acetate in addition to the previously described reagents. To terminate the incubation, the samples were centrifuged for 15 minutes at 12,000 g and 4° C. in a Beckman Microfuge 12. The supernatant was aspirated and the pelleted membranes dissolved in Beckman BTS-450 tissue solubilizer for a minimum of 6 hours at room temperature. Beckman MP scintillation cocktail containing 7 mL/1 acetic acid was then added and the samples counted on a Beckman LS 5800 or 3801 liquid scintillation counter with automatic corrections for quenching and counting efficiency. Nonspecific binding was defined as the residual binding in the presence of either excess L-glutamate (0.1-0.4 mM), kainate (0.01 mM), or NMDA (0.5 mM), and was 15-25% of the total binding in the NMDA binding assay, 19-27% in the AMPA binding assay, 20-30% in the kainate binding assay and 10-15% in the sodium-dependent binding assay. Radioligand binding to the synaptic plasma membranes was analyzed using Scatchard and Hill transformations and the Ki values of the compounds determined using logit-log transformations. Calculations and regression analysis were performed using templates developed for Lotus 1, 2, 3 as previously described [Pullan, L. M. "Automated Radioligand Receptor Binding Analysis with Templates for Lotus", Computer Appln. Biosci., 3, 131 (1987)]. Binding results are reported in Table I for example compounds of the invention.

[2] = Motor impairment, inverted screen test
Description: Naive male CD-1 mice (20-30 grams body weight) from Charles River Laboratories, Portage Mich. served as subjects. The mice had ad libitum access to food and water prior to testing and were maintained on a 12 hour light/12 hour dark schedule with testing during the light portion of the cycle. The mice were tested for motor impairment by use of the inverted screen test approximately 5 minutes prior to anticonvulsant testing. […] Mice were placed on 13×13 cm pieces of #4 wire mesh screen which were mounted horizontally. The screens were then slowly inverted. […] PG-Tween is a 1:1 mixture of propylene glycol and Tween 80. […] There were 10 mice in each treatment group.

O=C(O)c1cn2c(CP(=O)(O)O)cccc2n1 [Example 7, 5-(phosphonomethyl)imidazo[1,2-a]pyridine-2-carboxylic acid]
# of Neurons/Field ([1]; 300 mg/kg, control 32.8, P < 0.05): 53.0
# of Neurons/Field ([1]; 500 mg/kg, control 17.0, p < 0.0001): 112.6
cell loss ([1]; vs control, Mann-Whitney U test): significantly reduced
Ki (AMPA): > 300 µM
Exhibiting Motor Impairments (% of Mice) ([2]; 10 mg/kg s.c.): 30%
Exhibiting Motor Impairments (% of Mice) ([2]; 32 mg/kg s.c.): 50%
Exhibiting Motor Impairments (% of Mice) ([2]; 56 mg/kg s.c.): 70%
Exhibiting Motor Impairments (% of Mice) ([2]; 100 mg/kg s.c.): 90%
TD50 at 0.5 h ([2]; mouse, inverted screen test, sc): 24.6 mg/kg
impaired motor function (in words) ([2]; s.c.): impaired motor function in a similar dose range
